Measured values: PubChem BioAssay AID1963847 (Molecular Pharmacology Branch, DTP, NCI, 2024)

Test system: 415267-285-R-J2-PDC complex spheroid viability
Test: Anticancer human tumor 415267-285-R-J2-PDC patient-derived breast carcinoma cell line growth inhibition [POLQ]
Conditions: for IC50: curve of first compound; for viability, T/C: stronger effect = lower value
Method in brief: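 PDC + HUVEC + MSC complex spheroids; POLQ inhibitors ± partner drugs; top conc. at/near clinical Cmax, else 10 microM (SN-38 1 microM), half-log dilutions; 37 degrees C, 5% CO2.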
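Further: spheroids exposed to compounds for one week before readout.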
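Wherever viability, T/C is given: luminescence used as stand-in measure of viable cells; 100% = DMSO vehicle control viability.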

C#Cc1c(F)ccc2cc(O)cc(-c3ncc4c(N5CC6CCC(C5)N6)nc(OCC56CCCN5CC(F)C6)nc4c3F)c12 (configuration not stated) + COC1C(OC(N)=O)C(O)C(Oc2ccc3c(O)c(NC(=O)c4ccc(O)c(CC=C(C)C)c4)c(=O)oc3c2C)OC1(C)C
IC50 (second compound 0.0316 µM): > 10 µM | IC50 (second compound 0.1 µM): > 10 µM | IC50 (second compound 0.316 µM): > 10 µM | IC50 (second compound 1 µM): > 10 µM | IC50 (second compound 3.16 µM): > 10 µM | IC50 (second compound 10 µM): > 10 µM | viability, T/C (second compound 0.0316 µM, first compound 0.0316 µM): 101% | viability, T/C (second compound 0.0316 µM, first compound 0.1 µM): 95.3% | viability, T/C (second compound 0.0316 µM, first compound 0.316 µM): 103% | viability, T/C (second compound 0.0316 µM, first compound 1 µM): 95.4% | viability, T/C (second compound 0.0316 µM, first compound 3.16 µM): 97.7% | viability, T/C (second compound 0.0316 µM, first compound 10 µM): 101% | viability, T/C (second compound 0.1 µM, first compound 0.0316 µM): 97.6% | viability, T/C (second compound 0.1 µM, first compound 0.1 µM): 91.9% | viability, T/C (second compound 0.1 µM, first compound 0.316 µM): 102% | viability, T/C (second compound 0.1 µM, first compound 1 µM): 103% | viability, T/C (second compound 0.1 µM, first compound 3.16 µM): 101% | viability, T/C (second compound 0.1 µM, first compound 10 µM): 110% | viability, T/C (second compound 0.316 µM, first compound 0.0316 µM): 97.7% | viability, T/C (second compound 0.316 µM, first compound 0.1 µM): 103% | viability, T/C (second compound 0.316 µM, first compound 0.316 µM): 104% | viability, T/C (second compound 0.316 µM, first compound 1 µM): 95.3% | viability, T/C (second compound 0.316 µM, first compound 3.16 µM): 99.3% | viability, T/C (second compound 0.316 µM, first compound 10 µM): 100% | viability, T/C (second compound 1 µM, first compound 0.0316 µM): 84.9% | viability, T/C (second compound 1 µM, first compound 0.1 µM): 92% | viability, T/C (second compound 1 µM, first compound 0.316 µM): 91.2% | viability, T/C (second compound 1 µM, first compound 1 µM): 104% | viability, T/C (second compound 1 µM, first compound 3.16 µM): 102% | viability, T/C (second compound 1 µM, first compound 10 µM): 96.7% | viability, T/C (second compound 3.16 µM, first compound 0.0316 µM): 100% | viability, T/C (second compound 3.16 µM, first compound 0.1 µM): 111% | viability, T/C (second compound 3.16 µM, first compound 0.316 µM): 92.1% | viability, T/C (second compound 3.16 µM, first compound 1 µM): 111% | viability, T/C (second compound 3.16 µM, first compound 3.16 µM): 94.5% | viability, T/C (second compound 3.16 µM, first compound 10 µM): 91.4% | viability, T/C (second compound 10 µM, first compound 0.0316 µM): 95.3% | viability, T/C (second compound 10 µM, first compound 0.1 µM): 105% | viability, T/C (second compound 10 µM, first compound 0.316 µM): 98.4% | viability, T/C (second compound 10 µM, first compound 1 µM): 98% | viability, T/C (second compound 10 µM, first compound 3.16 µM): 91.8% | viability, T/C (second compound 10 µM, first compound 10 µM): 103%
